Key:
[1] = biological target: Human Fibroblast STROMELYSIN (Homo sapiens, UniProt P08254); experiment: biochemical; conditions: SE in parentheses
GELATINASE = biological target: T1, GELATINASE (Homo sapiens, UniProt P08253); experiment: inhibition of cleavage of fluorogenic peptide DNP-Pro-Leu-Gly-Leu-Trp-Ala-(D)-Arg-NH2 by gelatinase; type: biochemical; conditions: Human Fibroblast; SE in parentheses
T1 sequence (P08253 110-660): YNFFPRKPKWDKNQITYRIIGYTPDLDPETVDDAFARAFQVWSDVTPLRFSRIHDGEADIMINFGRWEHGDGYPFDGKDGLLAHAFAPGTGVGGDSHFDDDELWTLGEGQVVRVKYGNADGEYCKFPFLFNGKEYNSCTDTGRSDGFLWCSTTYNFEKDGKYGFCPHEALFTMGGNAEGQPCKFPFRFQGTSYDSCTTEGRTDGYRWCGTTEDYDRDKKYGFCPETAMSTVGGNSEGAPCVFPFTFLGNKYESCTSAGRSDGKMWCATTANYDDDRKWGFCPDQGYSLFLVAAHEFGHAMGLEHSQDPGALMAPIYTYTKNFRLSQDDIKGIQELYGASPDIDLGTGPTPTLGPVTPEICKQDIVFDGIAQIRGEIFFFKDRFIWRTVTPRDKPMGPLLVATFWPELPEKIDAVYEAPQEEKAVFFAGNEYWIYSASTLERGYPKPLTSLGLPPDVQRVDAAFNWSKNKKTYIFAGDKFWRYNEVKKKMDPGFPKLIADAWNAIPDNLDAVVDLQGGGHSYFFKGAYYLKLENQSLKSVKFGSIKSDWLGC

COLLAGENASE = biological target: T2, COLLAGENASE (Homo sapiens, UniProt P03956); experiment: inhibition of cleavage of fluorogenic peptide DNP-Pro-Leu-Gly-Leu-Trp-Ala-(D)-Arg-NH2 by collagenase; type: biochemical; conditions: Human Fibroblast; SE in parentheses where printed
T2 sequence (P03956 100-469): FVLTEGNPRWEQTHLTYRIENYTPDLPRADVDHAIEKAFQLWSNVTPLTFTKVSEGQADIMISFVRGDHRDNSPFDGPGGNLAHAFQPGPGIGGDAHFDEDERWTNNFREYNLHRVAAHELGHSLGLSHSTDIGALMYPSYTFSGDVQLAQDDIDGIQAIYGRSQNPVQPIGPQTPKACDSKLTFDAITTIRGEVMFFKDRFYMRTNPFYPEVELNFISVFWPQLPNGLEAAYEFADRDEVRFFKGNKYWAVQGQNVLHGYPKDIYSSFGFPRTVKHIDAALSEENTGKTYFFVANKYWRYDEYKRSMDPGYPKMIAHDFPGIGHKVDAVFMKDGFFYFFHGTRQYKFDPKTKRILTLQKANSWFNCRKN

[2] = biological target: human rheumatoid synovial collagenase; conditions: cited from earlier work
[3] = biological target: rabbit bone proteoglycanase; conditions: cited from earlier work

Chain of Human Fibroblast STROMELYSIN (P08254 100-477): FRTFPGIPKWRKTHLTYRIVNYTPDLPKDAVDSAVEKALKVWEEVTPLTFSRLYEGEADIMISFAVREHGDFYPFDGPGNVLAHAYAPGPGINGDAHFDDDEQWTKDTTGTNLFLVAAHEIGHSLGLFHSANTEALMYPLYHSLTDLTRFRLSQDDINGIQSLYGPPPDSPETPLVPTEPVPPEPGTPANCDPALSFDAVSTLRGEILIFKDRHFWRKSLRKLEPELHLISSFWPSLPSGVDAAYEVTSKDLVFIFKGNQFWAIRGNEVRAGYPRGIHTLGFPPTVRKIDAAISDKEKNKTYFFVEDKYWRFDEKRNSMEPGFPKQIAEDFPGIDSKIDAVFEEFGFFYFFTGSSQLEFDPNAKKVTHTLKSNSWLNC

Row | SMILES | Ki [1] [µM] | Ki (GELATINASE) [µM] | Ki (COLLAGENASE) [nM] | IC50 [2] [nM] | IC50 [3] [nM]
1 | CC(C)C[C@H](NC(=O)C(CCc1ccccc1)CP(=O)(O)CCCCNC(=O)NC(C)C)C(=O)Nc1ccccc1 (some centres unmarked) [(CH2)4 NCHCONH-i-C3 H7] | 0.022 | 0.0056 | – | – | –
2 | CC(C)COC(=O)NCCCCP(=O)(O)CC(CCc1ccccc1)C(=O)N[C@@H](CC(C)C)C(=O)Nc1ccccc1 (some centres unmarked) [(CH2)4 NCO2 -i-C4 H4] | 0.019 | 0.034 | – | – | –
3 | CC(C)C[C@H](NC(=O)C(CCc1ccccc1)CP(=O)(O)CCCCN1C(=O)c2ccccc2C1=O)C(=O)Nc1ccccc1 (stereo partly drawn) [(CH2)4 NPhth, (2-(((4-(1,3-Dihydro-1,3-dioxo-2H-isoindol-2-yl)butyl)hydroxyphosphinyl)methyl)-4-phenylbutanoyl)-L-leucine N-phenylamide] | – | 0.026 | 1000 | – | –
4 | CC(=O)N1CCC[C@H]1C(=O)N[C@@H](C)C(=O)N[C@@H](C)P(=O)(O)CC(CCc1ccccc1)C(=O)N[C@@H](CC(C)C)C(=O)Nc1ccccc1 (stereo partly drawn) [(R)CH(CH3)NHAlaProAc, [[Hydroxy[1(R)-[N-(N-acetyl-L-prolyl-L-alanyl)-amino]-ethyl]-phosphinyl]-methyl]-4-phenylbutanoyl-L-leucyl N-phenylamide] | 0.0061 | 0.0026 | 2900 | – | –
5 | CNC(=O)[C@H](Cc1ccc(OC)cc1)NC(=O)[C@H](CC(C)C)NC(CCNC(=O)OCc1ccccc1)C(=O)O (stereo partly drawn) [N-[3-(benzyloxycarbonyl)amino-1-carboxy-n-propyl]-L-leucyl-O-methyl-L-tyrosine, N-methylamide] | – | – | – | 800 | 500
